{"source": "paper PMC12198282", "about": "“Application of a high-density microelectrode array assay using a 3D human iPSC-derived brain microphysiological system model for in vitro neurotoxicity screening of environmental compounds” (Archives of Toxicology, 2025)", "key": {"[1]": {"tested_on": "human iPSC-derived 3D BrainSpheres", "assay": "BrainSphere MEA assay (HD-MEA, 13-day exposure, concentration-response)", "type": "cell-based", "details": "for EC (benchmark response 1.349 SD) / AC50: Homo sapiens; for EC (benchmark response 1.349 SD): 312 h", "procedure": "A volume of 1 ml of Tergazyme (1% solution in deionized water) was added to each well of the MaxTwo 6-Well Plate (MaxWell Biosystems) and incubated overnight under constant gyratory shaking (88 RPM) at 37 °C and 5% CO2. The next day, Tergazyme solution was removed, and plates were washed with distilled water and ethanol. After remaining ethanol was evaporated, wells were washed with PBS. Then, 200 µl of Poly-D-Lysine (Gibco, A38904 - 01) was added on top of the electrodes and incubated at 37 °C and 5% CO2 for 3 h (humidified). Poly-D-Lysine was then removed, and wells were coated with 100 µl of 0.1 mg/ml laminin coating solution (Sigma-Aldrich, L2020 - 1 mg) and incubated for 2 h at 37 ℃ and 5% CO2 (humidified). The laminin was removed after incubation. Using a 1 ml micropipette, 1 ml of medium containing BrainSpheres (7 weeks differentiated), approximately 25 BrainSpheres per ml, was plated on top of the HD-MEA chip (Fig. 1A). Afterwards, the plate was placed in an incubator at 37 °C and 5% CO2 and moved in circles to accumulate the BrainSpheres on top of the electrode area (Fig. 1A). The plate was kept in an incubator (humidified) for 2 days to allow attachment of the BrainSpheres with no gyratory shaking of the plates.\nThe MaxTwo high-density microelectrode array system (MaxWell Biosystems AG, Zurich, Switzerland) was used to measure neural activity with MaxTwo 6-well plates, where every well includes an integrated chip with 26,400 platinum electrodes arranged in an area of 3.85 × 2.10 mm^2 ([…]) (Muller et al. [2015]). The data were recorded and analyzed with the MaxLab Live Software (version 22.2.22). First, the MaxLab live ActivityScan Assay was used to identify the activity and positioning of the BrainSpheres on the array by scanning all the 26,400 electrodes in 29 configurations in a well (Assay Parameters: Configuration = Full; Recording time per configuration = 60 s (s)). The settings gain = 512, high-pass-filter (HPF): ~ 1 Hz and spike threshold = 5 X root-mean square (RMS) noise were used for all HD-MEA recordings. Circular regions of interest (ROI) were manually selected in the Activity Map where neuronal activity was apparent by an increased activity (Fig. 2). Over the course of the 13-day experiment, the same selected regions and electrodes were measured using the MaxLab Live Network Assay (600 s recording time).\nA custom analysis framework was used to extract the MaxLab Live neuronal metrics for the individual BrainSpheres. For this, electrodes comprising a single ROI (i.e., individual BrainSphere; Fig. 2D) were grouped using distance-based clustering (fcluster method of Scipy library, Python 3.7) and neural metrics were calculated for the clustered electrodes for every ROI separately. Figure 2E presents a raster plot illustrating the activity associated with individual Regions of Interest (ROIs). […] Ten MaxLab Live neural metrics (endpoints) were evaluated from the MaxLab live ActivityScan and Network Assay in this study. See Table 3 for the endpoint definitions, tuned parameters, and activity type (general versus network connectivity).\nThe BrainSphere MEA assay measured changes in neural activity during a 13-day chemical exposure. The first recording day of the concentration–response screening protocol (day of exposure (DOE) 0) occurred after 7 weeks of BrainSphere differentiation, 48 h after plating on HD-MEA plates (Fig. 1B). The study included at least three biological replicates (one well per plate) from separate experiments (e.g., three different plates on three different days) and each well included multiple BrainSpheres which were considered technical replicates."}, "2D rat cortical cultures [2]": {"tested_on": "2D rat cortical cultures", "details": "cited from earlier work; for Bioactivity in the rNFA (in words): ref Brown et al. [2016], Carstens et al. [2022], Frank et al. [2017b], Shafer et al. [2019], ToxCast invitrodb (v4.2)"}, "2D rat cortical cultures [3]": {"tested_on": "2D rat cortical cultures", "details": "rNFA mc5 hit call; cytotoxicity AlamarBlue; cited from earlier work"}, "2D rat cortical cultures [4]": {"tested_on": "2D rat cortical cultures", "details": "rNFA mc5 hit call; cytotoxicity LDH; cited from earlier work"}}, "note": "“Also recorded” adds a separate entry of the source. Like-named read-outs stand apart in the source and are kept apart here.", "data": [{"smiles": "CC(=O)Nc1ccc(O)cc1", "note": "[Acetaminophen]", "values": [{"measurement": "Bioactivity across the 10 MEA endpoints of the BrainSphere MEA assay (in words)", "setting": "[1]", "value": "inactive in both assays; also recorded: inactive across all endpoints; also recorded: inactivity across all metrics in both models"}, {"measurement": "Bioactivity trend over time for MFR, mean spike amplitude and burst frequency (qualitative)", "setting": "[1]", "value": "no clear chemical-dependent effects were observed"}, {"measurement": "Hits", "setting": "[1]", "value": 0}, {"measurement": "Percent active", "setting": "[1]", "value": 0, "unit": "%"}, {"measurement": "hitc Mean.Spheroid.Burst.Duration", "setting": "[1]", "value": 0}, {"measurement": "hitc Mean.Spheroid.Burst.ISI", "setting": "[1]", "value": 0}, {"measurement": "hitc Mean.Spheroid.Burst.Peak.Firing.Rate", "setting": "[1]", "value": 0}, {"measurement": "hitc Mean.Spheroid.Firing.Rate", "setting": "[1]", "value": 0}, {"measurement": "hitc Mean.Spheroid.IBI", "setting": "[1]", "value": 0}, {"measurement": "hitc Mean.Spheroid.Nonburst.ISI", "setting": "[1]", "value": 0}, {"measurement": "hitc Mean.Spheroid.Spikes.per.Burst", "setting": "[1]", "value": 0}, {"measurement": "hitc Mean.Spheroid.Spikes.per.Burst.per.Electrode", "setting": "[1]", "value": 0}, {"measurement": "hitc Spheroid.Burst.Frequency", "setting": "[1]", "value": 0}, {"measurement": "hitc Spheroid.Spike.Amplitude.90th.Percentile", "setting": "[1]", "value": 0}, {"measurement": "EC (benchmark response 1.349 SD)", "setting": "[1]; read-out: BMD Mean.Spheroid.Burst.ISI", "value": 415, "unit": "µM"}, {"measurement": "EC (benchmark response 1.349 SD)", "setting": "[1]; read-out: BMD Mean.Spheroid.Nonburst.ISI", "value": 163, "unit": "µM"}, {"measurement": "AC50", "setting": "[1]; read-out: ac50 Mean.Spheroid.Burst.Duration", "value": 4700, "unit": "nM"}, {"measurement": "AC50", "setting": "[1]; read-out: ac50 Mean.Spheroid.Burst.ISI", "value": 45000, "unit": "nM"}, {"measurement": "AC50", "setting": "[1]; read-out: ac50 Mean.Spheroid.Burst.Peak.Firing.Rate", "value": 370, "unit": "nM"}, {"measurement": "AC50", "setting": "[1]; read-out: ac50 Mean.Spheroid.IBI", "value": 1800, "unit": "nM"}, {"measurement": "AC50", "setting": "[1]; read-out: ac50 Mean.Spheroid.Spikes.per.Burst", "value": 6000, "unit": "nM"}, {"measurement": "AC50", "setting": "[1]; read-out: ac50 Mean.Spheroid.Spikes.per.Burst.per.Electrode", "value": 390, "unit": "nM"}, {"measurement": "AC50", "setting": "[1]; read-out: ac50 Spheroid.Burst.Frequency", "value": 610, "unit": "nM"}, {"measurement": "AC50", "setting": "[1]; read-out: ac50 Spheroid.Spike.Amplitude.90th.Percentile", "value": 240, "unit": "nM"}, {"measurement": "hitc CCTE_Shafer_MEA_dev_active_electrodes_number", "setting": "2D rat cortical cultures [2]; rNFA mc5 hit call, aenm active_electrodes_number", "value": 0}, {"measurement": "hitc CCTE_Shafer_MEA_dev_burst_duration_mean", "setting": "2D rat cortical cultures [2]; rNFA mc5 hit call, aenm burst_duration_mean", "value": 0}, {"measurement": "hitc CCTE_Shafer_MEA_dev_burst_rate", "setting": "2D rat cortical cultures [2]; rNFA mc5 hit call, aenm burst_rate", "value": 0}, {"measurement": "hitc CCTE_Shafer_MEA_dev_bursting_electrodes_number", "setting": "2D rat cortical cultures [2]; rNFA mc5 hit call, aenm bursting_electrodes_number", "value": 0}, {"measurement": "hitc CCTE_Shafer_MEA_dev_correlation_coefficient_mean", "setting": "2D rat cortical cultures [2]; rNFA mc5 hit call, aenm correlation_coefficient_mean", "value": 0}, {"measurement": "hitc CCTE_Shafer_MEA_dev_firing_rate_mean", "setting": "2D rat cortical cultures [2]; rNFA mc5 hit call, aenm firing_rate_mean", "value": 0}, {"measurement": "hitc CCTE_Shafer_MEA_dev_inter_network_spike_interval_mean", "setting": "2D rat cortical cultures [2]; rNFA mc5 hit call, aenm inter_network_spike_interval_mean", "value": 0}, {"measurement": "hitc CCTE_Shafer_MEA_dev_interburst_interval_mean", "setting": "2D rat cortical cultures [2]; rNFA mc5 hit call, aenm interburst_interval_mean", "value": 0}, {"measurement": "hitc CCTE_Shafer_MEA_dev_mutual_information_norm", "setting": "2D rat cortical cultures [2]; rNFA mc5 hit call, aenm mutual_information_norm", "value": 0}, {"measurement": "hitc CCTE_Shafer_MEA_dev_network_spike_duration_std", "setting": "2D rat cortical cultures [2]; rNFA mc5 hit call, aenm network_spike_duration_std", "value": 0}, {"measurement": "hitc CCTE_Shafer_MEA_dev_network_spike_number", "setting": "2D rat cortical cultures [2]; rNFA mc5 hit call, aenm network_spike_number", "value": 0}, {"measurement": "hitc CCTE_Shafer_MEA_dev_network_spike_peak", "setting": "2D rat cortical cultures [2]; rNFA mc5 hit call, aenm network_spike_peak", "value": 0}, {"measurement": "hitc CCTE_Shafer_MEA_dev_per_burst_interspike_interval", "setting": "2D rat cortical cultures [2]; rNFA mc5 hit call, aenm per_burst_interspike_interval", "value": 0}, {"measurement": "hitc CCTE_Shafer_MEA_dev_per_burst_spike_percent", "setting": "2D rat cortical cultures [2]; rNFA mc5 hit call, aenm per_burst_spike_percent", "value": 0}, {"measurement": "hitc CCTE_Shafer_MEA_dev_per_network_spike_spike_number_mean", "setting": "2D rat cortical cultures [2]; rNFA mc5 hit call, aenm per_network_spike_spike_number_mean", "value": 0}, {"measurement": "hitc CCTE_Shafer_MEA_dev_per_network_spike_spike_percent", "setting": "2D rat cortical cultures [2]; rNFA mc5 hit call, aenm per_network_spike_spike_percent", "value": 0}, {"measurement": "hitc CCTE_Shafer_MEA_dev_spike_duration_mean", "setting": "2D rat cortical cultures [2]; rNFA mc5 hit call, aenm spike_duration_mean", "value": 0}, {"measurement": "Bioactivity in the rNFA (in words)", "setting": "2D rat cortical cultures [2]", "value": "inactivity across all metrics in both models"}, {"measurement": "Bioactivity in the rNFA (in words)", "setting": "2D rat cortical cultures [2]; listed as acetaminophen", "value": "inactive in both assays; also recorded: did not"}, {"measurement": "hitc CCTE_Shafer_MEA_dev_AB", "setting": "2D rat cortical cultures [3]", "value": 0}, {"measurement": "hitc CCTE_Shafer_MEA_dev_LDH", "setting": "2D rat cortical cultures [4]", "value": 0}]}]}
